Results from patent US20120329709A1, “PRODUCTION OF GLYCOPROTEINS” (priority 2009, published 2012).

Columns and labels:
CHO cells [1] = assay: Intracellular sugar-nucleotide levels from CHO cells cultured with Uridine supplementation; format: cell-based, Chinese hamster; set-up: CMP-NeuAc, average increase in sugar-nucloetide above no supplemented cells / UDP-Gal, average increase in sugar-nucloetide above no supplemented cells / UDP-Glc, average increase in sugar-nucloetide above no supplemented cells / UDP-GlcNAc, average increase in sugar-nucloetide above no supplemented cells / GDP-Man, average increase in sugar-nucloetide above no supplemented cells: unit not given here; conditions: for CMP-NeuAc, average increase in sugar-nucloetide above no supplemented cells / GDP-Fuc, average increase in sugar-nucloetide above no supplemented cells / GDP-Man, average increase in sugar-nucloetide above no supplemented cells / UDP-Gal, average increase in sugar-nucloetide above no supplemented cells / UDP-Glc, average increase in sugar-nucloetide above no supplemented cells / UDP-GlcNAc, average increase in sugar-nucloetide above no supplemented cells: intracellular, CHO cells
Method: (§1) Chinese hamster ovary (CHO) cells were supplemented with the nucleoside uridine. Cells were harvested, and snap frozen, while culture supernatant was harvested and CTLA4Ig harvested by protein A purification for subsequent analysis. Cells were then subjected to nucleotide sugar extraction using standard methods. In short, this was performed with chloroform:methanol:water (2:4:1), the pellets discarded, and the resulting extraction dried down. The dried material was subsequently resuspended in 500 ul of 10% butanol in water and then extracted with 1 ml of 90% butanol in water. The butanol phase was discarded and the acqueous subjected to a second butanol extraction. The final aqueous phase was dried down and the sugar nucleotides further isolated by PGC chromatography eluting off with 25% acetonitrile (v/v) containing 50 mM triethylammonium acetate. For quantification, sugar-nucletides were resolved with RP chromatography.

CHO cells [2] = assay: LC-MS analysis of glycans from CTLA4Ig produced by CHO cells in the presence of elevated uridine; format: cell-based, Chinese hamster; conditions: CTLA4Ig from uridine-supplemented CHO cells, compared to the untreated control
Excerpt: FIG. 1 is a depiction of the levels of glycans from recombinant fusion protein CTLA4-IgG produced in the presence of elevated uridine. Data are expressed as the ratio of the amount of the indicated glycan from control conditions to the amount of the same glycan produced in the presence of elevated uridine. Values are the average +/−SD of duplicate determinants. A value greater than one indicates the species is in greater abundance under the control conditions.
as §1, with “The butanol phase was discarded and the acqueous subjected to a second butanol extraction. The final aqueous phase was dried down and the sugar nucleotides further isolated by PGC chromatography eluting off with 25% acetonitrile (v/v) containing 50 mM triethylammonium acetate.” left out
Protein product was deglycosylated with PNGase F for 18 hours and the resulting glycans isolated with PGC chromatography. […] Resulting MS peak areas were quantified and for each glycan the ratio of the control vs. the uridine treated samples was determined.

SMILES: O=c1ccn([C@@H]2O[C@H](CO)[C@@H](O)[C@H]2O)c(=O)[nH]1 [Uridine, uridine]
- levels of the uridine sugars including UDP-Gal and UDP-GlcNAc (CHO cells [1]; CHO cells supplemented with uridine): increased significantly
- CMP-NeuAc, average increase in sugar-nucloetide above no supplemented cells (CHO cells [1]; Uridine 2 x): 32.13
- GDP-Fuc, average increase in sugar-nucloetide above no supplemented cells (CHO cells [1]; Uridine 2 x): 6.5
- GDP-Man, average increase in sugar-nucloetide above no supplemented cells (CHO cells [1]; Uridine 2 x): 6.06
- UDP-Gal, average increase in sugar-nucloetide above no supplemented cells (CHO cells [1]; Uridine 2 x): 168.97
- UDP-Glc, average increase in sugar-nucloetide above no supplemented cells (CHO cells [1]; Uridine 2 x): 409.16
- UDP-GlcNAc, average increase in sugar-nucloetide above no supplemented cells (CHO cells [1]; Uridine 2 x): 402.7
- CMP-NeuAc, average increase in sugar-nucloetide above no supplemented cells (CHO cells [1]; Uridine 10 x): 50.52
- GDP-Fuc, average increase in sugar-nucloetide above no supplemented cells (CHO cells [1]; Uridine 10 x): 8.98
- GDP-Man, average increase in sugar-nucloetide above no supplemented cells (CHO cells [1]; Uridine 10 x): 12.45
- UDP-Gal, average increase in sugar-nucloetide above no supplemented cells (CHO cells [1]; Uridine 10 x): 389.06
- UDP-Glc, average increase in sugar-nucloetide above no supplemented cells (CHO cells [1]; Uridine 10 x): 1261.96
- UDP-GlcNAc, average increase in sugar-nucloetide above no supplemented cells (CHO cells [1]; Uridine 10 x): 2280.49
- level of the monogalactosylated species on the protein product (CHO cells [2]): rises
